Experiment [1] deals with T1, CCR5 (Homo sapiens, UniProt P51681). The settings on record: CCR5-expressing Chinese hamster ovary cells; cited from earlier work.
Experiment [2] has as its system R5 HIV-1. The following applies: clinical isolates and a laboratory strain; peripheral blood mononuclear cells; cited from earlier work.
The subject of experiment [3] is T-cell line-tropic HIV-1. The settings on record: cited from earlier work.
Experiment [4] deals with T1, CCR5. Further details: endogenous in cells; host or cells: monocytes. The following applies: cited from earlier work.
Experiment [5] relates to M-tropic HIV-1 strains. The following applies: cited from earlier work.
Experiment [6] deals with T1, CCR5. Further details: endogenous in cells; host or cells: monocytes. The settings on record: monocytes; cited from earlier work.
Experiment [7] has as its system CCR5. As to the kind of experiment: Binding affinity of identified peptide ligands for CCR5 (displacement of [125I]-MIP-1β). Further details: species or system human. The text has this: In order to determine those ligands that had the highest affinity to the target receptor, generally, over 200 peptide libraries were screened to determine each library's respective inhibition binding. […] In additional aspects of the invention, once preferred amino acid residues are identified due to high preference values by CCR5 at the degenerate positions of the library, specific peptides are synthesized by the same methods as employed for library synthesis. In one embodiment of the invention, a high preference value is greater than 1. The value is determined by subtracting the control value from the sample value and dividing by the reference value. In a preferred embodiment of the invention, the preference value is greater than 1.2. In a highly preferred embodiment of the invention, the preference value is greater than 2. After synthesis of the identified peptide sequence, the peptide is purified by, for example, High Performance Liquid Chromatography (“HPLC”) and compositions are confirmed by Matrix-Assisted Laser Desorption Ionization-Time of Flight Mass Spectrometer (“MALDI-TOF MS”) and Edman Sequencing. Generally, relative affinities may be measured by modifying the radiolabel binding assay used in receptor purification.
Relative affinities were measured by modifying the radiolabel binding assay used in receptor purification.

Experiment [8] deals with PDZ. The following applies: binding domain PDZ; cited from earlier work.
The target of experiment [9] is T2, SH2 (src) (Homo sapiens, UniProt P12931).
T2 construct: SH2 (src)
The settings on record: binding domain SH2 (src); cited from earlier work.

Experiment [10] concerns the target 14-3-3. The following applies: binding domain 14-3-3; cited from earlier work.
In experiment [11] the target is CCR5. The settings on record: value obtained by Receptor Biology; applicant's membrane preparations comparable; read-out: Kd for MIP1-β binding; cited from earlier work.

T1 sequence (P51681 whole entry): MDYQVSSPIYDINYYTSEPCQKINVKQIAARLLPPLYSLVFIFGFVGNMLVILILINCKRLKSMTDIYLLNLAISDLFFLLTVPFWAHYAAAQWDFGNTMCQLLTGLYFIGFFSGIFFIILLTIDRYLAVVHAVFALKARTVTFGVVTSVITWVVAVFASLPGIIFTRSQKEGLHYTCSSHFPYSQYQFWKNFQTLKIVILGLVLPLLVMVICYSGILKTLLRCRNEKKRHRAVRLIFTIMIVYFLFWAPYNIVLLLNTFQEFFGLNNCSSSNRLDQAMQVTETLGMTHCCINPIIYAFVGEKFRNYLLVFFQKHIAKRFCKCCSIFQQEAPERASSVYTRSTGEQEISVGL

For `Cc1ccc(-c2ccc3c(c2)C=C(C(=O)Nc2ccc(C[N+](C)(C)C4CCOCC4)cc2)CCC3)cc1.[Cl-]` [TAK-779], in experiment [1], the “antagonism of RANTES binding to CCR5” value is given as “antagonizes”. In addition, the “concentration inhibiting replication of R5 HIV-1” value in [2] is 1.6 to 3.7 nM. Moreover, the “activity against T-cell line-tropic HIV-1” value in experiment [3] is “inactive”. In addition, the “concentration blocking CCR5-mediated Ca2+ signaling” value in experiment [4] is on record as “nanomolar”.
Take Aminooxypentane (AOP)-RANTES[2-68]: the “inhibition of infection of macrophages” value in experiment [5] is “potently inhibits”. Moreover, the “antagonist potency on CCR5 function” value in experiment [6] is given as “subnanomolar”.
With “K-K-K-A-R-S-L-I-W-R-P-A-K-A-K-K-K (KKKARSLIWRPAKAKKK)”, the “affinity and action on CCR5” value in [7] is “enhanced affinity and action”.
Broadly, the Kd is the equilibrium constant for the complex coming apart. Turning to KKKKETDV, the Kd in experiment [8] was 42 nM.
In the case of “M-A-R-S-L-I-W-R-P-A-K-A-K-K-A (MARSLIWRPAKAKKA)”, the “affinity and action on CCR5” value in [7] was “enhanced affinity and action”.
As to PYBEIY, the Kd in experiment [9] is 100 nM.
With RLSHpSLP, in experiment [10], the Kd was 55.7 nM.
“cyclo(M-Y-A-T-R-W-K-N) (MYATRWKN; cyclic)”: the “affinity and action on CCR5” value in [7] is “enhanced affinity and action”.

B1: MIP-1β: natural CCR5 ligand, used as [125I] radioligand (protein, UniProt P13236 24-92, looked up)
C-C motif chemokine 4: APMGSDPPTACCFSYTARKLPRNFVVDYYETSSLCSQPAVVFQTKRSKQVCADPSESWVQEYVYDLELN
modifications: ends and bridges not checked; also: [125I] radiolabel
For B1, the dissociation constant Kd in [11] is below 1 nM.

(Values after US20020064770A1, “Binding compounds and methods for identifying binding compounds” (priority 2000, published 2002).)
